Source: ChEMBL document CHEMBL4673248, “Discovery and Characterization of BAY 1214784, an Orally Available Spiroindoline Derivative Acting as a Potent and Selective Antagonist of the Human Gonadotropin-Releasing Hormone Receptor as Proven in a First-In-Human Study in Postmenopausal Women” (J Med Chem, 2020)

Experiments:
Cytochrome P450 3A4 = Cytochrome P450 3A4 (Homo sapiens, UniProt P08684); experiment: Irreversible inhibition of CYP3A4 in human liver microsomes using midazolam as substrate; assay type: ADME
Sequence of Cytochrome P450 3A4 (P08684 whole entry): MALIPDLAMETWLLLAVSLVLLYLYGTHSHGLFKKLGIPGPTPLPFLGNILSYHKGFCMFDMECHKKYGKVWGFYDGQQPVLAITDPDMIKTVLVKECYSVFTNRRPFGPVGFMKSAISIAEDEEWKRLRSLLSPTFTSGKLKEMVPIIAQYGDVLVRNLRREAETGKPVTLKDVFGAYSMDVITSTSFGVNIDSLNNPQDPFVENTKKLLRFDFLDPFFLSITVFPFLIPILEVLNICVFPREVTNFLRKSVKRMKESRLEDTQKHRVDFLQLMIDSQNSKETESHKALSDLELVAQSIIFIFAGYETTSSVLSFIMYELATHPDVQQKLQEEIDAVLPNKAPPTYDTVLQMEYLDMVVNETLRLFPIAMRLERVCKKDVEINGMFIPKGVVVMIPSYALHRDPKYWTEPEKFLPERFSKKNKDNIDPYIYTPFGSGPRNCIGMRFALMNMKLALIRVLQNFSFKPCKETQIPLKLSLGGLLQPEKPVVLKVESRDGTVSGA

[1] = Maximum oral bioavailability in dog hepatocytes; assay type: ADME, Canis lupus familiaris, Hepatocyte; conditions: read-out: Fmax

## O=C(NCc1ncc(C(F)(F)F)cc1Cl)c1ccc2c(c1)C1(CCS(=O)(=O)CC1)[C@H](C1CC1)N2S(=O)(=O)c1ccc(F)cc1 [BAY-784]
Cytochrome P450 3A4
  IC50: > 10 µM
[1]
  Fh: 65%
